In PubChem BioAssay (NCI):
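Cells were grown in 96-well plates and exposed to each compound for 48 hours at five concentrations; endpoints were interpolated linearly between bracketing concentrations, or set to the highest concentration if not reached. TGI: total growth inhibition.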

Tested on: RXF-631 renal
Assay: growth of human tumour cells (NCI), 48 h

Going from CCCCC1(OC(=O)CCC(=O)O)CCC2(CCC(C)C(C/C=C(C)/C=C/C(O)C(C)/C=C/C(=O)O)O2)OC1CC/C(C)=C/C(=O)O (centres undefined) to CCC12CC[C@H](C#N)N3CCc4c(n(c5ccccc45)C(=O)C1)C32 (some centres undefined), the TGI rises from 5.7 µM to 45.1 µM (7.9-fold).

N=c1oc2cc(O)c(O)cc2cc1C(N)=O and CN(C)c1cccc(-c2cc(=O)c3cc4c(cc3[nH]2)OCO4)c1 cannot be ordered by TGI: greater than 100 µM for the first, greater than 100 µM for the second.

CC(C)C1=CC(=O)C(C)(C2=NC(C)(C)CO2)c2ccccc21 (centres undefined) and CC(C)(C)c1cc(N=NC(=S)NCc2ccccc2)cc(C(C)(C)C)c1O cannot be ordered by TGI: greater than 100 µM for the first, greater than 100 µM for the second.

First: Cc1ccc(C2=NN(C)COC2C(F)(F)F)cc1 (centres undefined)
Second: c1ccc2c(NCCCCCCCCNc3cccc4ccccc34)cccc2c1
The TGI of the first is higher: greater than 100 µM for the first, 34.5 µM for the second.

BrC12C3C4C5C(C(C43)C13OCCO3)C52 (centres undefined) showed a TGI greater than 100 µM.
